From US9867802B2, “Method of treating Scedosporium spp. infection” (BIODIEM LIMITED, priority 2012, dated 2018)
≈ marks a conversion by molar mass, not a printed value. Like-named read-outs stand apart in the source and are kept apart here.

Tests used:
P. boydii = test: In vitro susceptibility (MIC) against Scedosporium spp.; format: cell-based, Pseudallescheria boydii; conditions: strain P. boydii 01-10-1391979, duplicate on two occasions, read-out: Arithmetic Mean MIC (mg/L) of 4 readings
Description: (§1) In vitro susceptibility to Compound (1) was assessed against Scedosporium spp. A stock solution of 1 mg/ml of Compound (1) was made in 100% DMSO. The stock was aliquoted and stored at −80° C.
(§2) Three strains Scedosporium prolificans and 3 strains of S. apiospermum/P. boydii were tested. Each isolate was tested in duplicate and on two separate occasions.

S. apiospermum = test: as above; format: cell-based
Description: as §1, §2

Scedosporium prolificans = test: as above; format: cell-based; conditions: for MIC: Lomentospora prolificans, duplicate on two occasions, read-out: Arithmetic Mean MIC (mg/L) of 4 readings
Description: as §1, §2

| Compound | MIC (P. boydii) [mg/L] | MIC (S. apiospermum; read-out: Arithmetic Mean MIC (mg/L) of 4 readings, strain S. apsiopermum 04-10-2013595, duplicate on two occasions) [mg/L] | MIC (S. apiospermum; strain S. apiospermum 04-10-1932310, duplicate on two occasions, read-out: Arithmetic Mean MIC (mg/L) of 4 readings) [mg/L] | MIC (Scedosporium prolificans; strain S. prolificans 04-11-1472398) [mg/L] | MIC (Scedosporium prolificans; strain S. prolificans (Austin Pathology)) [mg/L] | MIC (Scedosporium prolificans; strain S. prolificans MB 10028425) [mg/L] | Relative activity among Scedosporium spp. (Scedosporium prolificans; comparison of species tested in Table 1) | Solubility in organic solvents (Solubility profile; acetone, alcohol, acetic acid and a majority of organic solvents) | Solubility in water (Solubility profile; water) |
| --- | --- | --- | --- | --- | --- | --- | --- | --- | --- |
| C/C(=C\c1ccc2c(c1)OCO2)[N+](=O)[O-] [Compound (1), 3,4-methylenedioxy-β-methyl-β-nitrostyrene] | 4 (≈ 19.3 µM) | 2 (≈ 9.65 µM) | 4 (≈ 19.3 µM) | 2 (≈ 9.65 µM) | 1 (≈ 4.83 µM) | 2 (≈ 9.65 µM) | most active against S. prolificans |  |  |
| O=[N+]([O-])/C=C/c1ccc2c(c1)OCO2 [Compound (2), 3,4-methylenedioxy-β-nitrostyrene] |  |  |  |  |  |  |  | soluble | non-soluble |
